# Patent publication US6340754B1, “Phosphorus containing cyclic nucleotides” (priority 1998, dated 2002)
# What was measured:
# [1] = test system: cell free culture supernatant (fraction A) of Serratia marcescens, cyclic nucleotide phosphodiesterase activity; test: Activity assay, fraction A: cell free culture supernatant, HPLC detection of substrate and products; type: biochemical, Serratia marcescens strain DSM 30121; conditions: 40 μl of 100 mM substrate in 400 μl, overnight at 30° C.
# Protocol: (§1) The substrates used for enzyme activity assays are dissolved in phosphate buffer pH 7.0 to the required concentration.
# One single colony is subsequently used to inoculate 25 ml of LB Broth contained in a 100-ml shake-flask. This culture is then incubated at 30° C. and shaken at 200 rpm (Infors HT Shaker, Infors AG, Bottmingen, Switzerland) for another 48 hrs.
# (§2) After incubation, the whole volume of the culture is centrifuged at 9000 rpm for 20 minutes at ca. 4° C. (DuPont Instruments Sorvall® RC-5B Refrigerated Superspeed Centrifuge, Digitana AG, Horgen, Switzerland; rotor SS-34).
# The supernatant (fraction A) is recuperated and 360 μl are placed in an Eppendorf tube. Fourty μl of a 100 mM solution of substrate are then added to the reaction mixture and incubated overnight at 30° C.
# After 5 minutes of extraction at room temperature, the tubes are centrifugated at 14 000 rpm for 5 minutes (Bench Centrifuge Biofuge 15) and the supernatant transfered to HPLC tubes for analysis.
# Blanks are made with the substrate solution being replaced by an equivalent volume of phosphate buffer pH 7.0.
# The activity is qualitatively determined by observing the appearance of the substrate and product(s) of the activity assay as peaks on a HPLC profile. […] A peak showing on the assay's chromatogramme at the same or at a very close retention time as that of a standard, and moreover absent from the blank, is considered to be the same compound as the standard with a minimum risk of error.
# The solvent system is composed of 10 mm phosphate buffer, pH 4.0 (solvent A) and Methanol (solvent B) and two different gradients are applied depending on whether natural or modified nucleotides are used for the assay:
# The HPLC profiles obtained for the activity assays are compared with profiles of standards in order to identify the peaks.
# [2] = test system: Intact cells (fraction B) of Serratia marcescens; test: Activity assay, fraction B: whole-cell suspension, HPLC detection of substrate and products; type: cell-based, Serratia marcescens strain DSM 30121; conditions: 10 mM substrate solution, overnight at 30° C.
# Protocol: as §1
# Serratia marcescens strain DSM 30121 is grown for 48 hrs in Petri dishes containing Luria-Bertani [LB] Agar (1% Tryptone [Merck 07213]; 0.5% Yeast Extract [Fluka 70161]; 86 mM NaCl [Fluka 71382]; 50 mM Tris-HCl, pH 7.5 [Merck 8382]; 1.5% Bacto-Agar [Difco 0140-01]) at 30° C. (Memmert Incubator, Haska AG, Bern, Switzerland). One single colony is subsequently used to inoculate 25 ml of LB Broth contained in a 100-ml shake-flask. This culture is then incubated at 30° C. and shaken at 200 rpm (Infors HT Shaker, Infors AG, Bottmingen, Switzerland) for another 48 hrs.
# as §2
# The pellet is resuspended in 1 ml of distilled water and 40 μl of this whole-cell suspension (fraction B) are placed in an Eppendorf tube to which 360 μl of a 10 mM solution of the substrate are added. The incubation conditions are the same as for the supernatant fraction. […]
# The activity is qualitatively determined by observing the appearance of the substrate and product(s) of the activity assay as peaks on a HPLC profile. […]
Compound,hydrolysis / degradation of substrate [1],degradation of added substrate [2]
"COCCO[C@@H]1[C@@H]2OP(=O)(O)OC[C@H]2O[C@H]1n1cnc2c(N)ncnc21 [2′MOE CAMP, 2′-O(2-Methoxyethyl)-adenosine 3′,5′-cyclic-phosphate]",about 50%,about 85%
Nc1ccn([C@@H]2O[C@@H]3COP(=O)(O)O[C@H]3[C@H]2O)c(=O)n1 [cCMP],ca. 10%,–
O=c1[nH]cnc2c1ncn2[C@@H]1O[C@@H]2COP(=O)(O)O[C@H]2[C@H]1O [cIMP],85-89%,–
